Laboratory results: patent US20150284344A1, “Substituted [1,2,4]triazole Compounds” (BASF SE, priority 2012, published 2015)

Legend:
Assay type in all cases: cell-based
Septoria tritici = assay: Microtiterplate test against leaf blotch on wheat caused by Septoria tritici (Septtr), M3 / C4; settings: comparison test C4, control = 100%
Pyricularia oryzae = settings: comparison test C2, control = 100%
Leptosphaeria nodorum = assay: Microtiterplate test against wheat leaf spots caused by Leptosphaeria nodorum (Leptno), C3; settings: comparison test C3, control = 100%
Botrytis cinerea = assay: Microtiterplate test against grey mold Botrytis cinerea (Botrci), M1 / C1; settings: comparison test C1, control = 100%

## Cc1cc(Oc2ccc(Cl)cc2)ccc1C(C)(O)Cn1cncn1 (stereo not drawn) [Compound I-4, 2-[4-(4-chlorophenoxy)-2-methyl-phenyl]-1-(1,2,4-triazol-1-yl)propan-2-ol]
Septoria tritici
  Growth (%) at 2 ppm Septtr: 0%
Pyricularia oryzae
  Growth (%) at 31 ppm Pyrior: 0%
Leptosphaeria nodorum
  Growth (%) at 2 ppm Leptno: 0%
Botrytis cinerea
  Growth (%) at 31 ppm Botrci: 0%

## Cc1cc(Oc2ccc(Cl)cc2)ccc1C(O)(Cn1cncn1)C(F)(F)F (stereo not drawn) [Compound I-5, 2-[4-(4-chlorophenoxy)-2-methyl-phenyl]-1,1,1-trifluoro-3-(1,2,4-triazol-1-yl)propan-2-ol]
Septoria tritici
  Growth (%) at 2 ppm Septtr: 2%
Pyricularia oryzae
  Growth (%) at 31 ppm Pyrior: 0%
Leptosphaeria nodorum
  Growth (%) at 2 ppm Leptno: 1%
Botrytis cinerea
  Growth (%) at 31 ppm Botrci: 0%

## Cc1cc(Oc2ccc(Cl)cc2)ccc1C(O)(CF)Cn1cncn1 (stereo not drawn) [EP 113 640 A2, compound 53, Table I, reference compound]
Septoria tritici
  Growth (%) at 2 ppm Septtr: 40%
Pyricularia oryzae
  Growth (%) at 31 ppm Pyrior: 47%
Leptosphaeria nodorum
  Growth (%) at 2 ppm Leptno: 65%
Botrytis cinerea
  Growth (%) at 31 ppm Botrci: 63%
